Laboratory results taken from PubChem BioAssay (NCI).
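Each compound was tested at five concentrations against cells in 96-well plates for 48 hours. At the GI50, growth is halved. At the TGI there is no net growth.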

Legend:
Experiment in all cases: inhibition of tumour cell growth, NCI panel, 48 h
EKVX NSCLC = system: EKVX NSCLC
HOP-62 NSCLC = system: HOP-62 NSCLC
NCI-H460 lung = system: NCI-H460 lung
OVCAR-5 ovarian = system: OVCAR-5 ovarian
SF-268 CNS = system: SF-268 CNS
SK-MEL-2 melanoma = system: SK-MEL-2 melanoma
SN12C renal = system: SN12C renal
SW-620 colon = system: SW-620 colon
U251 CNS = system: U251 CNS
NCI/ADR-RES ovarian = system: NCI/ADR-RES ovarian

SMILES | TGI (EKVX NSCLC) [µM] | TGI (HOP-62 NSCLC) [µM] | TGI (NCI-H460 lung) [µM] | TGI (OVCAR-5 ovarian) [µM] | TGI (SF-268 CNS) [µM] | TGI (SK-MEL-2 melanoma) [µM] | TGI (SN12C renal) [µM] | TGI (SW-620 colon) [µM] | TGI (U251 CNS) [µM] | GI50 (HOP-62 NSCLC) [µM] | GI50 (NCI-H460 lung) [µM] | GI50 (NCI/ADR-RES ovarian) [µM] | TGI (NCI/ADR-RES ovarian) [µM] | GI50 (OVCAR-5 ovarian) [µM] | GI50 (SF-268 CNS) [µM] | GI50 (SK-MEL-2 melanoma) [µM] | GI50 (SN12C renal) [µM] | GI50 (SW-620 colon) [µM] | GI50 (U251 CNS) [µM] | GI50 (EKVX NSCLC) [µM]
O=C(CCCCCCCCCCc1ccccc1)c1c(O)cccc1O | 48.7 | 42.2 | 39.6 | 45.2 | 57.8 | 31.3 | 34.6 | 34.7 | 38.1 | – | – | – | – | – | – | – | – | – | – | –
Cc1nnc2n1N=C(CC(=O)c1ccc(O)cc1O)CN2N | > 100 | > 100 | > 100 | > 100 | > 100 | > 100 | > 100 | 31 | > 100 | – | – | – | – | – | – | – | – | – | – | –
S=C(Nc1ccccc1)Nc1[nH]c(=S)sc1-c1nc2ccccc2[nH]1 | > 100 | 66.8 | – | > 100 | > 100 | > 100 | > 100 | > 100 | > 100 | – | – | – | – | – | – | – | – | – | – | –
O=C1OC(c2ccc(O)cc2)(c2ccc(O)cc2)c2cccc3cccc1c23 | – | 38.1 | 39.6 | 31.7 | 32.2 | 31.2 | 38.4 | 33.3 | 30.3 | 17.3 | 17.9 | 21.9 | 68.7 | 16.5 | 14.2 | 15.6 | 12.7 | 15.5 | 15.6 | –
O=C1[C@H]2C(c3ccccc3)=NN(C(=O)c3ccccc3)[C@H]2C(=O)N1c1ccccc1 | > 100 | > 100 | > 100 | – | – | > 100 | > 100 | > 100 | > 100 | – | – | – | – | – | – | – | – | – | – | –
COC(=O)c1cc(Nc2ccc(O)c3c2C(=O)c2c([N+](=O)[O-])ccc(O)c2C3=O)cc(C(=O)OC)c1 | – | > 100 | 18.9 | > 100 | > 100 | > 100 | > 100 | > 100 | > 100 | 4.04 | 3.32 | 26.8 | > 100 | 26 | 7.97 | 4.05 | 21.4 | 3.3 | 25.7 | –
CCOC(=O)c1cnc2[nH]c(=O)c3ccccc3n2c1=O | > 100 | > 100 | > 100 | > 100 | > 100 | > 100 | > 100 | > 100 | > 100 | – | – | – | – | – | – | – | – | – | – | –
O=C1OCC(C(=O)c2cccc(O)c2)C1=O (stereo not given) | > 100 | > 100 | > 100 | > 100 | > 100 | – | > 100 | > 100 | > 100 | – | – | – | – | – | – | – | – | – | – | –
COc1cc2ccn3c4cc(OC)c(OC)cc4cc3c2cc1OC | > 100 | > 100 | > 100 | > 100 | > 100 | > 100 | > 100 | > 100 | > 100 | – | – | – | – | – | – | – | – | – | – | –
O=C(CCCCCCCCC(=O)OCC1OC(n2cnc3c(=O)[nH]cnc32)C(O)C1O)OCC1OC(n2cnc3c(=O)[nH]cnc32)C(O)C1O (stereo not given) | > 100 | > 100 | > 100 | > 100 | > 100 | > 100 | > 100 | > 100 | > 100 | – | – | – | – | – | – | – | – | – | – | –
CC1=C(C#N)C(N)=C2C(C)=C(C#N)C(N)=C12 | > 100 | > 100 | > 100 | > 100 | > 100 | – | > 100 | > 100 | > 100 | – | – | – | – | – | – | – | – | – | – | –
COC(=O)/C(C#N)=C1\N=NNN1CCCN1CCOCC1 | > 100 | – | > 100 | – | – | – | > 100 | > 100 | > 100 | – | – | – | – | – | – | – | – | – | – | –
Oc1cc2cc(-c3ccccc3)[nH]c2c2ccccc12 | > 100 | > 100 | 72.1 | > 100 | > 100 | 43.5 | > 92.9 | > 100 | > 100 | – | – | – | – | – | – | – | – | – | – | –
Cc1ccc([P+](Cc2ccc([N+](=O)[O-])cc2)(c2ccc(C)cc2)c2ccc(C)cc2)cc1 | – | 23.8 | 16.8 | 23.3 | 14 | 4.51 | 17.5 | 15.4 | 12.2 | 10.4 | 4.26 | 68.3 | > 100 | 6.68 | 3.45 | 1.96 | 4.27 | 3.07 | 2.56 | –
CC(C)OP(=O)(CP(=O)(OC(C)C)OC(C)C)OC(C)C.[CH3][Sn]([Br])([Br])[Br] | > 100 | > 100 | > 100 | > 100 | > 100 | > 100 | > 100 | > 100 | > 100 | > 100 | > 100 | – | – | > 100 | > 100 | > 100 | > 100 | > 100 | > 100 | > 100
Brc1ccc2c(c1)C1(c3cc(Br)ccc3-2)c2cc(Br)ccc2-c2ccc(Br)cc21 | > 100 | > 100 | > 100 | > 100 | > 100 | > 100 | > 100 | > 100 | > 100 | – | – | – | – | – | – | – | – | – | – | –
COc1cc2c3c(c1OC)-c1ccccc1C(C(OC(C)=O)c1ccccc1)C3N(C)CC2 (stereo not given) | > 100 | – | > 100 | > 100 | > 100 | 83.7 | > 100 | > 100 | > 100 | – | – | – | – | – | – | – | – | – | – | –
O=C(O)c1cc(Cl)cc(NC(=O)C(Cl)Cl)c1Cl | > 100 | > 100 | > 100 | – | > 100 | > 100 | > 100 | > 100 | > 100 | – | – | – | – | – | – | – | – | – | – | –
COC(=O)C(CC=O)C(=O)C(=O)Nc1cccc(C(F)(F)F)c1 (stereo not given) | > 100 | > 100 | > 100 | > 100 | > 100 | > 100 | > 100 | > 100 | > 100 | – | – | – | – | – | – | – | – | – | – | –
Cc1cc(N(CCC#N)S(=O)(=O)c2ccccc2)ccc1C=O | > 100 | > 100 | > 100 | > 100 | > 100 | > 100 | > 100 | > 100 | > 100 | – | – | – | – | – | – | – | – | – | – | –
